ChEMBL document CHEMBL5653631, “A Potent and Selective ULK1 Inhibitor Suppresses Autophagy and Sensitizes Cancer Cells to Nutrient Stress” (iScience, 2018)
One block for each molecule: values may come before it.

What was measured:
[1] = biological target: T1, Eukaryotic elongation factor 2 kinase (Homo sapiens) (UniProt O00418); test: Inhibition of human recombinant eEF2K at 500 nM related to control ULK1
T1 sequence (whole entry): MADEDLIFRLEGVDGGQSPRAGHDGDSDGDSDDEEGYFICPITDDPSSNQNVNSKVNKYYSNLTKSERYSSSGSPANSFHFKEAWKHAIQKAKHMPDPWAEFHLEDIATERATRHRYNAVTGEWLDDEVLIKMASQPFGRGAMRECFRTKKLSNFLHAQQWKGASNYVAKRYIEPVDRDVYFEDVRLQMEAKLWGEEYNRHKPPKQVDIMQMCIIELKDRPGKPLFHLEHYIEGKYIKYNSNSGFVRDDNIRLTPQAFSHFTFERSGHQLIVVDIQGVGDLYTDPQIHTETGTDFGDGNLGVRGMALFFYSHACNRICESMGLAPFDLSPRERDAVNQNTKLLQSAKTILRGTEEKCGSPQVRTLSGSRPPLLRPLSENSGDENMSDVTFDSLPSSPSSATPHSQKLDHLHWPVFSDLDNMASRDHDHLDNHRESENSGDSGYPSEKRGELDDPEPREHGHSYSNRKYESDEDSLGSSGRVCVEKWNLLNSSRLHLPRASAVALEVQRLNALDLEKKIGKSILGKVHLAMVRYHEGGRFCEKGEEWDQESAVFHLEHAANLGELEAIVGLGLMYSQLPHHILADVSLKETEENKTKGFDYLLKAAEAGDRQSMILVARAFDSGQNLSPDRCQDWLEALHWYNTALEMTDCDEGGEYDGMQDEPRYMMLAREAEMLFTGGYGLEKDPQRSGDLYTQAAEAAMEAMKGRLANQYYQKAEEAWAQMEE

[2] = biological target: Serine/threonine-protein kinase 38-like (Homo sapiens) (UniProt Q9Y2H1); test: Inhibition of human recombinant NDR2 at 500 nM related to control ULK1
Sequence of Serine/threonine-protein kinase 38-like (Homo sapiens) (Q9Y2H1 2-464 limits assumed): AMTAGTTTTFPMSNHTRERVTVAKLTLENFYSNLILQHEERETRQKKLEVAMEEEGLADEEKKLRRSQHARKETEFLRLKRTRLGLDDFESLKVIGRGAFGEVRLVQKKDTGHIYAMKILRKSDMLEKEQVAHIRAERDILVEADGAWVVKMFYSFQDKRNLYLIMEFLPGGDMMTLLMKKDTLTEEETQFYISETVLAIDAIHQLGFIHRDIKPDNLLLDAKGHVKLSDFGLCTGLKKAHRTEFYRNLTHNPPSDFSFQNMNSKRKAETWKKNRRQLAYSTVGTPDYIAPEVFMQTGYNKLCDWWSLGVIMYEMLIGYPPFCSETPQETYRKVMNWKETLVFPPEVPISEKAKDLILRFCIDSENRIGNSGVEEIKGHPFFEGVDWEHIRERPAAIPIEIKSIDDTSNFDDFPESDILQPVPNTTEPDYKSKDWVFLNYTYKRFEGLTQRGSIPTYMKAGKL

[3] = biological target: Hepatocyte growth factor receptor (Homo sapiens) (UniProt P08581); test: Inhibition of human recombinant MET at 15 nM related to control ULK1
Sequence of Hepatocyte growth factor receptor (Homo sapiens) (P08581 whole entry, looked up, the tested form may be a part): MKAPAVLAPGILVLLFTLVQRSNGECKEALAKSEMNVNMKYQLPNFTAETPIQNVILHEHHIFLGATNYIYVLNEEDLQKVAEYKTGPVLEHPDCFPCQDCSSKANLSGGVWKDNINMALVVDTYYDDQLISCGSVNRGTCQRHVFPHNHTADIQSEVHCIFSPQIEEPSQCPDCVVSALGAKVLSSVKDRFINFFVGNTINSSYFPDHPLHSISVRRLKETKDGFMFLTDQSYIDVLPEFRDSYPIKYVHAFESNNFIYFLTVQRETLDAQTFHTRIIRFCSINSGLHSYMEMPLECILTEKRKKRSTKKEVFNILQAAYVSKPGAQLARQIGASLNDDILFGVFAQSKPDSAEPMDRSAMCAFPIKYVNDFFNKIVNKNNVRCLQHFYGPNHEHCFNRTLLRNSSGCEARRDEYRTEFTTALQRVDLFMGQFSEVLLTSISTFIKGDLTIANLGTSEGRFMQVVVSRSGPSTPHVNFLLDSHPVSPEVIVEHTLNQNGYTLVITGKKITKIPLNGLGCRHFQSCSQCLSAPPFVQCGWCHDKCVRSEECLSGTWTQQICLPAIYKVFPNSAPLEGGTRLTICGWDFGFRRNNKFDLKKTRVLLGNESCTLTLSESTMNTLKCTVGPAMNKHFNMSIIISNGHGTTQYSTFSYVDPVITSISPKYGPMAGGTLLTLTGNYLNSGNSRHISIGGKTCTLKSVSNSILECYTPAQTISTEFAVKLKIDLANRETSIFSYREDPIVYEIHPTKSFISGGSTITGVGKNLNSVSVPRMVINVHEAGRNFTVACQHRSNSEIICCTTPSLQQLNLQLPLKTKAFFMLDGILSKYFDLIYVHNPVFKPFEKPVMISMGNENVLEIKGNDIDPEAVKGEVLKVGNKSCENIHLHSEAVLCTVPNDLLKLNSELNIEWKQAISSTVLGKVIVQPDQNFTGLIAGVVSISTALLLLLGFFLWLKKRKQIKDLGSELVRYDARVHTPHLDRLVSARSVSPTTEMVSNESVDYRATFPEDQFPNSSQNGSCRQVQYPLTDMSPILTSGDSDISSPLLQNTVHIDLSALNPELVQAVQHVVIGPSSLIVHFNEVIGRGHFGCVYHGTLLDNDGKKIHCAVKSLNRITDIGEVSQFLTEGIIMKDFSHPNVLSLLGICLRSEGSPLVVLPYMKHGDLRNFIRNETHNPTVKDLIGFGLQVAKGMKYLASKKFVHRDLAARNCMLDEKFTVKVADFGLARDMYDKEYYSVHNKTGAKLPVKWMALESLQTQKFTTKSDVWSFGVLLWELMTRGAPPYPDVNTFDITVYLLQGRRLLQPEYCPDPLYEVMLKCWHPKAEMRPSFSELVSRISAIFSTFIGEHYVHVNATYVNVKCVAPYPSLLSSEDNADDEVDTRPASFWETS

[4] = biological target: Epithelial discoidin domain-containing receptor 1 (Homo sapiens) (UniProt Q08345); test: Inhibition of human recombinant DDR1 at 15 nM related to control ULK1
Sequence of Epithelial discoidin domain-containing receptor 1 (Homo sapiens) (Q08345 whole entry, the tested form may be a part): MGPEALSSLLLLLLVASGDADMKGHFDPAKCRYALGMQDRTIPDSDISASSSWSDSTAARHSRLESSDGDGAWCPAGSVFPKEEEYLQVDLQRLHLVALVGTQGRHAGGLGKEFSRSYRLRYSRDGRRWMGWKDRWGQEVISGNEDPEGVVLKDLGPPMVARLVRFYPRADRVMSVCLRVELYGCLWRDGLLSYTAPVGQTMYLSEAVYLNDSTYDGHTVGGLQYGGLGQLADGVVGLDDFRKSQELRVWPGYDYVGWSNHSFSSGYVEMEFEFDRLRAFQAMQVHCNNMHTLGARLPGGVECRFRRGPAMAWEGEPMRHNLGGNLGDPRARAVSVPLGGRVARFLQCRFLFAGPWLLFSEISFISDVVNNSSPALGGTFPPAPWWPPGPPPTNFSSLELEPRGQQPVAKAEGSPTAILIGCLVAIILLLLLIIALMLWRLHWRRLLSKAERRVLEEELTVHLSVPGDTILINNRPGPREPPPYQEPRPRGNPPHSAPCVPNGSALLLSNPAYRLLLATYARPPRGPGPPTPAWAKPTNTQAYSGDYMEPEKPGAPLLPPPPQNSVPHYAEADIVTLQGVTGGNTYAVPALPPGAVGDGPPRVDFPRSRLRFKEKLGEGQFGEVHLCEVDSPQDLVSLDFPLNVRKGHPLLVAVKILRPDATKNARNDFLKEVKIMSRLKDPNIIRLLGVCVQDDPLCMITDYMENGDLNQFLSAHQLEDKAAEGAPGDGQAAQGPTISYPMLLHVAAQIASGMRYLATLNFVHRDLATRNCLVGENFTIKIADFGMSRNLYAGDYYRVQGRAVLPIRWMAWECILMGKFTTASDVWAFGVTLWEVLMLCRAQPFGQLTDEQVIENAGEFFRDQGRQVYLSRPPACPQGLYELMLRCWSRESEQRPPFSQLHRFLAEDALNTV

[5] = biological target: Eukaryotic translation initiation factor 2-alpha kinase 1 (Homo sapiens) (UniProt Q9BQI3); test: Inhibition of human recombinant HRI at 15 nM in presence of ATP by radiometric assay relative to control
Sequence of Eukaryotic translation initiation factor 2-alpha kinase 1 (Homo sapiens) (Q9BQI3 whole entry): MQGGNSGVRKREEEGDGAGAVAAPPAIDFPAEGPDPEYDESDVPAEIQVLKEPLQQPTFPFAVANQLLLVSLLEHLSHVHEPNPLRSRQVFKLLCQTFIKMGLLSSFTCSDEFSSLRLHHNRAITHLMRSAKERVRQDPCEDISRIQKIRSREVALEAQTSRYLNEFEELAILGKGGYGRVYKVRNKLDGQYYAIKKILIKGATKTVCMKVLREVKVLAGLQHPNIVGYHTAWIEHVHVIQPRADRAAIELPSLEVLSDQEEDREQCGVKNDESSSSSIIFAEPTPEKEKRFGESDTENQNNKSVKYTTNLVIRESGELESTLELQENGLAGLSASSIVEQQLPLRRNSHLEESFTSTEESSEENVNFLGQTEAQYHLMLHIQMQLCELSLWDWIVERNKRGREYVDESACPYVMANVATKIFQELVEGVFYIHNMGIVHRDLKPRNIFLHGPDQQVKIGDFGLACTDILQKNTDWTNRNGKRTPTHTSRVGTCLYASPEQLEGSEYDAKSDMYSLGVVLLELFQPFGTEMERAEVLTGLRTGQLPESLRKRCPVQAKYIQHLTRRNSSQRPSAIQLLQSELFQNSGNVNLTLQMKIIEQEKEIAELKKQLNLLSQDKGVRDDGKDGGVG

[6] = biological target: G protein-coupled receptor kinase 6 (Homo sapiens) (UniProt P43250); test: Inhibition of human recombinant GPRK6 at 15 nM in presence of ATP by radiometric assay relative to control
[7] = biological target: T2, SNF-related serine/threonine-protein kinase (Homo sapiens) (UniProt Q9NRH2); test: Inhibition of human recombinant SNRK at 15 nM related to control ULK1
T2 sequence (whole entry): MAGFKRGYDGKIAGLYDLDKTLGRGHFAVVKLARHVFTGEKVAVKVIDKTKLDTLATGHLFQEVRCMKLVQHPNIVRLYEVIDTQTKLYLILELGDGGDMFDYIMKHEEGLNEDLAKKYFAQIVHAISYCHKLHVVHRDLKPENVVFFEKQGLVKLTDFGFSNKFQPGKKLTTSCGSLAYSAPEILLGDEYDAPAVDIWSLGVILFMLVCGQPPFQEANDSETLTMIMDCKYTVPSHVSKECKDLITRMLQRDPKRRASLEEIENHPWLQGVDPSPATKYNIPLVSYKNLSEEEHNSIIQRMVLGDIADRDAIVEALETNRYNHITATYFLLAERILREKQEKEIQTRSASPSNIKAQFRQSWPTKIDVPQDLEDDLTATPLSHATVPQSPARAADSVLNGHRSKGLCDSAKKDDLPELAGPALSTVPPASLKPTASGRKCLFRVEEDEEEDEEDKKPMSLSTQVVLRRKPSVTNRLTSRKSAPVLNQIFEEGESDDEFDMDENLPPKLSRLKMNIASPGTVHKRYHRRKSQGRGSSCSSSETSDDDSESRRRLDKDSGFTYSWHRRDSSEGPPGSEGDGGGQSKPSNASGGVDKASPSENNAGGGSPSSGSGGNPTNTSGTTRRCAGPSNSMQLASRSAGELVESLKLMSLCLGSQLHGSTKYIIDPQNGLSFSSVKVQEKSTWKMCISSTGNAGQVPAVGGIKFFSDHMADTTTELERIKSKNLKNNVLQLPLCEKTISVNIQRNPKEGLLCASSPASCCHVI

[8] = biological target: Vascular endothelial growth factor receptor 1 (Homo sapiens) (UniProt P17948); test: Inhibition of human recombinant FLT1 at 40 nM in presence of ATP by radiometric assay relative to control
Sequence of Vascular endothelial growth factor receptor 1 (Homo sapiens) (P17948 whole entry): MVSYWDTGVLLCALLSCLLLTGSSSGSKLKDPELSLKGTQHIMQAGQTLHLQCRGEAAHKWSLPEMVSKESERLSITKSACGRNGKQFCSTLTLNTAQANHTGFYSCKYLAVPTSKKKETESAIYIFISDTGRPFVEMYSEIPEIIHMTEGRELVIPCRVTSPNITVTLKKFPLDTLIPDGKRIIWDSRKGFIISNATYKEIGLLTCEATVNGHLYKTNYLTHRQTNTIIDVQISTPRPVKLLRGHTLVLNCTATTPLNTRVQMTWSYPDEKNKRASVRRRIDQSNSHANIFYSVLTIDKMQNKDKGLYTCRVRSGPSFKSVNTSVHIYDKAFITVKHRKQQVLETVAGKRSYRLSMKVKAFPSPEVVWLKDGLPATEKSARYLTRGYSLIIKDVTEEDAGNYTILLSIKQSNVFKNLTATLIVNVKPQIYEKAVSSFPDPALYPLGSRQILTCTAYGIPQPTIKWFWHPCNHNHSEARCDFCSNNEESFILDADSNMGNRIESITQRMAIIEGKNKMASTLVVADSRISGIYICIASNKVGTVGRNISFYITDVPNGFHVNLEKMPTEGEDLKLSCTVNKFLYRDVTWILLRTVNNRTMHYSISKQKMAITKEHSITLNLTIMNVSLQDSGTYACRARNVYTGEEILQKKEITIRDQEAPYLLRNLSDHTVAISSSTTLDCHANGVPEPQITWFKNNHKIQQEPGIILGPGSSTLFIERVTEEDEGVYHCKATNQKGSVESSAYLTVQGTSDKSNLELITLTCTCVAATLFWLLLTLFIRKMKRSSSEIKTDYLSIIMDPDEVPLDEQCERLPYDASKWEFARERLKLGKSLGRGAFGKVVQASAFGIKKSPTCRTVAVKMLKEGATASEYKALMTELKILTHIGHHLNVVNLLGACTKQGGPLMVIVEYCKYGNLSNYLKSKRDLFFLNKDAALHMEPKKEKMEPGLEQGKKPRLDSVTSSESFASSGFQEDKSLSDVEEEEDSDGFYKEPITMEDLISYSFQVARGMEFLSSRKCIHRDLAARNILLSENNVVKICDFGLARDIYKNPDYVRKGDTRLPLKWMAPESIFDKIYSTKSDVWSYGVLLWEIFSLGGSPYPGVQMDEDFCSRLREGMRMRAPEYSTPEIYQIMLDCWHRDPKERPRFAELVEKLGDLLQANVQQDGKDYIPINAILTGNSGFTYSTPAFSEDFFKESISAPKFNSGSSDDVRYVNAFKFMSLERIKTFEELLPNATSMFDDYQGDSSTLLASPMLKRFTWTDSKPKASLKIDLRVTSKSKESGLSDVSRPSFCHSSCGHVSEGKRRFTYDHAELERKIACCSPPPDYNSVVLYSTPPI

[9] = biological target: MAP kinase-activated protein kinase 3 (Homo sapiens) (UniProt Q16644); test: Inhibition of human recombinant MAPKAPK3 at 40 nM in presence of ATP by radiometric assay relative to control

- fold change (FC) [1]: 0.19
- fold change (FC) [2]: 0.2
Structure (SMILES): CNC(=O)c1ccccc1Oc1nc(Nc2cc(OC)c(OC)c(OC)c2)ncc1Br

- fold change (FC) [3]: 0
- fold change (FC) [4]: 0.89
- inhibition [5]: 0%
- inhibition [6]: 0%
- fold change (FC) [7]: 0.09
Structure (SMILES): CC(C)[C@H](NC(=O)c1cc(-c2cnn3cc(-c4ccc(OCCN5CCCCC5)cc4)cnc23)cs1)C(F)(F)F

- inhibition [8]: 18%
- inhibition [9]: 0%
Structure (SMILES): O=C(N[C@@H](C1CC1)C(F)(F)F)c1cc(-c2cnn3cc(-c4ccc(F)cc4)cnc23)cs1
